From the supplement of paper PMC10627819

Columns and labels:
Conditions in all cases: main component drawn
S. aureus Newman [1] = assay: fitness (endpoint OD595 vs no drug) (fraction); higher = more growth
Outline: (§1)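 Bacterial growth was followed in 384-well plates seeded at OD595 0.01, with 30 µl per well, or 55 µl for S. pneumoniae, in TSB, LB Lennox or CY at 37 °C. OD595 was read every 30 min for 14 h, and each reading had the first reading subtracted as background. Fitness is the background-corrected optical density at entry into stationary phase divided by the robust mean of the no-drug control wells. This ratio is capped at 1.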

B. subtilis 168 [2] = assay: Bliss interaction score (quartile over a dose matrix) (fitness difference); higher = more antagonism (negative = synergy)
Outline: (§2)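 Combination data were used to infer fitness under each single drug. Fitness is the OD595 at entry into stationary phase divided by the robust mean of the plate's no-drug wells, with a cap of 1. The Bliss score is the observed minus the expected product fitness, summarised by quartiles over technical, biological and donor/recipient replicates.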

S. aureus DSM 20231 = assay: as above
Outline: as §2

S. aureus Newman [3] = assay: as above
Outline: as §2

S. pneumoniae D39V [4] = assay: as above
Outline: as §2

B. subtilis 168 [5] = assay: fitness (endpoint OD595 vs no drug) (fraction); higher = more growth
Outline: as §1

S. pneumoniae D39V [6] = assay: as above
Outline: as §1
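Throughout, for Bliss interaction score (quartile over a dose matrix): first quartile when negative (synergy) and third quartile when positive (antagonism).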

CNC(C)C1CCC(N)C(OC2C(N)CC(N)C(OC3OCC(C)(O)C(NC)C3O)C2O)O1 (stereo not drawn) [Gentamicin] + CCCCCCCCCC(=O)N[C@@H]1[C@H]([C@@H]([C@H](O[C@H]1OC2=C3C=C4C=C2OC5=C(C=C(C=C5)[C@H]([C@H]6C(=O)N[C@@H](C7=C(C(=CC(=C7)O)OC8[C@H]([C@H]([C@@H]([C@H](O8)CO)O)O)O)C9=C(C=CC(=C9)[C@H](C(=O)N6)NC(=O)[C@@H]4NC(=O)[C@@H]1C2=CC(=CC(=C2)OC2=C(C=CC(=C2)[C@H](C(=O)N[C@H](CC2=CC(=C(O3)C=C2)Cl)C(=O)N1)N)O)O)O)C(=O)O)O[C@H]1[C@@H]([C@H]([C@@H]([C@H](O1)CO)O)O)NC(=O)C)Cl)CO)O)O [Teicoplanin]
fitness, S. aureus Newman [1], one replicate
Conditions	first compound 0.375 µg/mL	first compound 0.75 µg/mL	first compound 1 µg/mL	first compound 1.5 µg/mL	first compound 2 µg/mL	first compound 4 µg/mL
partner 0.1562 µg/mL	≥ 1	≥ 1	–	≥ 1	–	–
partner 0.3125 µg/mL	≥ 1	≥ 1	–	≥ 1	–	–
partner 0.62 µg/mL	–	–	0.748	–	0.37	0.0704
partner 0.625 µg/mL	0.861	0.851	–	0.875	–	–
partner 1.24 µg/mL	–	–	0.616	–	0.0206	0.0307
partner 2.48 µg/mL	–	–	0.0707	–	0.0793	0.0765

fitness, S. aureus Newman [1]
Conditions	first compound 0.5 µg/mL	first compound 1 µg/mL	first compound 2 µg/mL
partner 0.1562 µg/mL	≥ 1	≥ 1	≥ 1
partner 0.3125 µg/mL	≥ 1	≥ 1	≥ 1
partner 0.625 µg/mL	≥ 1	≥ 1	≥ 1

Conditions	Bliss interaction score
B. subtilis 168 [2]	-0.13
S. aureus DSM 20231	-0.0694
S. aureus Newman [3]	-0.0337
S. pneumoniae D39V [4]	0.0694

CNC(C)C1CCC(N)C(OC2C(N)CC(N)C(OC3OCC(C)(O)C(NC)C3O)C2O)O1 (stereo not drawn) [Gentamicin] + CCC[C@@H]1C[C@@H](C(=O)N[C@@H]([C@H]2O[C@H](SC)[C@H](O)[C@@H](O)[C@H]2O)[C@@H](C)O)N(C)C1 [Lincomycin]
fitness
Conditions	partner 0.1 µg/mL	partner 0.2 µg/mL	partner 0.215 µg/mL	partner 0.4 µg/mL	partner 0.43 µg/mL	partner 0.8 µg/mL	partner 0.86 µg/mL
B. subtilis 168 [5], first compound 0.0625 µg/mL	0.851	0.858	–	0.911	–	–	–
B. subtilis 168 [5], first compound 0.25 µg/mL	0.038	0.0459	–	0.121	–	–	–
S. pneumoniae D39V [6], first compound 2 µg/mL	–	0.465	0.858	0.285	0.795	0.0324	0.558
S. pneumoniae D39V [6], first compound 4 µg/mL	–	0.455	0.843	0.257	0.716	0.0339	0.397
S. pneumoniae D39V [6], first compound 8 µg/mL	–	0.389	0.834	0.212	0.741	0.0377	0.41

fitness, B. subtilis 168 [5], one replicate
Conditions	first compound 0.0625 µg/mL	first compound 0.125 µg/mL	first compound 0.25 µg/mL
partner 0.8 µg/mL	0.989	0.881	0.32
partner 1.6 µg/mL	0.921	0.895	0.367

Conditions	Bliss interaction score
B. subtilis 168 [2]	0.1
S. aureus DSM 20231	0.106
S. aureus Newman [3]	0.0735
S. pneumoniae D39V [4]	-0.0859

CNC(C)C1CCC(N)C(OC2C(N)CC(N)C(OC3OCC(C)(O)C(NC)C3O)C2O)O1 (stereo not drawn) [Gentamicin] + CN(C)C(=O)C(CCN1CCC(O)(c2ccc(Cl)cc2)CC1)(c1ccccc1)c1ccccc1 [Loperamide]
Conditions	fitness
B. subtilis 168 [5], first compound 0.0625 µg/mL, partner 100 µg/mL	0.0528
B. subtilis 168 [5], first compound 0.125 µg/mL, partner 25 µg/mL	0.0373
B. subtilis 168 [5], first compound 0.125 µg/mL, partner 50 µg/mL	0.0589
B. subtilis 168 [5], first compound 0.125 µg/mL, partner 100 µg/mL	0.0432
B. subtilis 168 [5], first compound 0.25 µg/mL, partner 25 µg/mL	0.0438
B. subtilis 168 [5], first compound 0.25 µg/mL, partner 50 µg/mL	0.0483
B. subtilis 168 [5], first compound 0.25 µg/mL, partner 100 µg/mL	0.0409
S. pneumoniae D39V [6], first compound 2 µg/mL, partner 17.14 µg/mL	0.968
S. pneumoniae D39V [6], first compound 2 µg/mL, partner 20 µg/mL	≥ 1
S. pneumoniae D39V [6], first compound 2 µg/mL, partner 34.28 µg/mL	0.967
S. pneumoniae D39V [6], first compound 2 µg/mL, partner 40 µg/mL	0.994
S. pneumoniae D39V [6], first compound 2 µg/mL, partner 80 µg/mL	0.193
S. pneumoniae D39V [6], first compound 4 µg/mL, partner 17.14 µg/mL	≥ 1
S. pneumoniae D39V [6], first compound 4 µg/mL, partner 20 µg/mL	≥ 1
S. pneumoniae D39V [6], first compound 4 µg/mL, partner 34.28 µg/mL	0.98
S. pneumoniae D39V [6], first compound 4 µg/mL, partner 40 µg/mL	≥ 1
S. pneumoniae D39V [6], first compound 8 µg/mL, partner 17.14 µg/mL	0.984
S. pneumoniae D39V [6], first compound 8 µg/mL, partner 20 µg/mL	≥ 1
S. pneumoniae D39V [6], first compound 8 µg/mL, partner 34.28 µg/mL	0.916
S. pneumoniae D39V [6], first compound 8 µg/mL, partner 40 µg/mL	≥ 1

S. pneumoniae D39V [6], partner 68.57 µg/mL, one replicate
Conditions	fitness
first compound 2 µg/mL	≥ 1
first compound 4 µg/mL	0.924
first compound 8 µg/mL	0.937

Conditions	Bliss interaction score
B. subtilis 168 [2]	-0.159
S. aureus DSM 20231	0.0997
S. aureus Newman [3]	0.0802
S. pneumoniae D39V [4]	0.0792

CNC(C)C1CCC(N)C(OC2C(N)CC(N)C(OC3OCC(C)(O)C(NC)C3O)C2O)O1 (stereo not drawn) [Gentamicin] + C[C@H]1COc2c(N3CCN(C)CC3)c(F)cc3c(=O)c(C(=O)O)cn1c23 [Levofloxacin]
fitness, B. subtilis 168 [5], one replicate
Conditions	first compound 0.0625 µg/mL	first compound 0.125 µg/mL	first compound 0.25 µg/mL
partner 0.001 µg/mL	0.868	0.126	0.0524
partner 0.0078 µg/mL	0.98	0.977	0.259

Conditions	fitness
B. subtilis 168 [5], first compound 0.0625 µg/mL, partner 0.002 µg/mL	0.89
B. subtilis 168 [5], first compound 0.0625 µg/mL, partner 0.0039 µg/mL	0.89
B. subtilis 168 [5], first compound 0.0625 µg/mL, partner 0.0312 µg/mL	0.0381
B. subtilis 168 [5], first compound 0.0625 µg/mL, partner 0.0625 µg/mL	0.0442
B. subtilis 168 [5], first compound 0.0625 µg/mL, partner 0.125 µg/mL	0.0374
B. subtilis 168 [5], first compound 0.125 µg/mL, partner 0.0312 µg/mL	0.0387
B. subtilis 168 [5], first compound 0.125 µg/mL, partner 0.0625 µg/mL	0.046
B. subtilis 168 [5], first compound 0.125 µg/mL, partner 0.125 µg/mL	0.0388
B. subtilis 168 [5], first compound 0.25 µg/mL, partner 0.002 µg/mL	0.206
B. subtilis 168 [5], first compound 0.25 µg/mL, partner 0.0039 µg/mL	0.163
B. subtilis 168 [5], first compound 0.25 µg/mL, partner 0.0312 µg/mL	0.0407
B. subtilis 168 [5], first compound 0.25 µg/mL, partner 0.0625 µg/mL	0.0447
B. subtilis 168 [5], first compound 0.25 µg/mL, partner 0.125 µg/mL	0.0485
S. pneumoniae D39V [6], first compound 2 µg/mL, partner 0.1725 µg/mL	0.98
S. pneumoniae D39V [6], first compound 2 µg/mL, partner 0.2 µg/mL	0.901
S. pneumoniae D39V [6], first compound 2 µg/mL, partner 0.345 µg/mL	0.914
S. pneumoniae D39V [6], first compound 2 µg/mL, partner 0.4 µg/mL	0.75
S. pneumoniae D39V [6], first compound 2 µg/mL, partner 0.69 µg/mL	0.636
S. pneumoniae D39V [6], first compound 2 µg/mL, partner 0.8 µg/mL	0.213
S. pneumoniae D39V [6], first compound 4 µg/mL, partner 0.1725 µg/mL	0.972
S. pneumoniae D39V [6], first compound 4 µg/mL, partner 0.2 µg/mL	0.874
S. pneumoniae D39V [6], first compound 4 µg/mL, partner 0.345 µg/mL	0.902
S. pneumoniae D39V [6], first compound 4 µg/mL, partner 0.4 µg/mL	0.723
S. pneumoniae D39V [6], first compound 4 µg/mL, partner 0.69 µg/mL	0.625
S. pneumoniae D39V [6], first compound 4 µg/mL, partner 0.8 µg/mL	0.21
S. pneumoniae D39V [6], first compound 8 µg/mL, partner 0.1725 µg/mL	0.98
S. pneumoniae D39V [6], first compound 8 µg/mL, partner 0.2 µg/mL	0.865
S. pneumoniae D39V [6], first compound 8 µg/mL, partner 0.345 µg/mL	0.912
S. pneumoniae D39V [6], first compound 8 µg/mL, partner 0.4 µg/mL	0.671
S. pneumoniae D39V [6], first compound 8 µg/mL, partner 0.69 µg/mL	0.438
S. pneumoniae D39V [6], first compound 8 µg/mL, partner 0.8 µg/mL	0.179

Conditions	Bliss interaction score
B. subtilis 168 [2]	-0.0837
S. aureus DSM 20231	0.0527
S. aureus Newman [3]	0.0894
S. pneumoniae D39V [4]	-0.123
